ChEMBL document CHEMBL4483862, “Open-source discovery of chemical leads for next-generation chemoprotective antimalarials” (2018)

System: Plasmodium berghei
Test: Luciferase/luciferin-expressing antifolate-resistant parasites were used to infect a culture of HepG2 cells that were pre-incubated with compounds. Infected hepatocytes emit light due to the luciferase reaction. Assay results are presented as the percent inhibition of light emission compared to control. […]
Assay type: functional
Conditions: sporozoite; for IC90: read-out: LUCIFERASE INFECTION ASSAY - IC90
[1] = read-out: LUCIFERASE INFECTION ASSAY - IC50

| SMILES | IC90 | IC50 [1] | other results |
| --- | --- | --- | --- |
| Cc1cc(C(=O)COC(=O)c2ccccc2OCc2ccccc2Cl)c(C)n1CC1CCCO1 (stereo unspecified) | > 10 µM | – | IC50 (HEPG2TOX_HILL_SLOPE 0.0867, HEPG2TOX_R_SQUARED 0.214, read-out: LUCIFERASE INFECTION ASSAY - IC50): > 10 µM |
| Clc1ccc2[nH]cc(CCNc3nc(Cl)nc4nc[nH]c34)c2c1 | 0.6 µM | – | IC50 (HEPG2TOX_HILL_SLOPE 2.4, HEPG2TOX_R_SQUARED 0.982, PBLUC_HILL_SLOPE 2.19, PBLUC_R_SQUARED 0.753, read-out: LUCIFERASE INFECTION ASSAY - IC50): 0.22 µM |
| Cc1ccc(-c2nc(C(=O)N3CCCc4ccccc43)cs2)cc1 | > 10 µM | 2.91 µM | – |
| Cc1nc(NC(=O)c2cn3ccccc3n2)sc1Cc1ccc2c(c1)OCO2 | 3.5 µM | – | IC50 (PBLUC_HILL_SLOPE 53.8, PBLUC_R_SQUARED 0.294, read-out: LUCIFERASE INFECTION ASSAY - IC50): 3.36 µM |
| COc1ccc(/C=C2\C(=O)/C(=C/c3ccc(OC)c(O)c3)c3ccccc32)cc1O | 3.46 µM | – | IC50 (HEPG2TOX_HILL_SLOPE 2.67, HEPG2TOX_R_SQUARED 0.974, PBLUC_HILL_SLOPE 3.5, PBLUC_R_SQUARED 0.766, read-out: LUCIFERASE INFECTION ASSAY - IC50): 1.85 µM |
| COc1ccc(Cn2nc(-c3ccccc3)cc2-c2ccccc2O)cc1 | 1.33 µM | – | IC50 (HEPG2TOX_HILL_SLOPE 8.58, HEPG2TOX_R_SQUARED 0.567, PBLUC_HILL_SLOPE 13.6, PBLUC_R_SQUARED 0.554, read-out: LUCIFERASE INFECTION ASSAY - IC50): 1.13 µM |
| CNS(=O)(=O)Cc1ccccc1CNCc1cccc(Oc2ccccc2)c1 | > 10 µM | > 10 µM | – |
| CCN(CC)S(=O)(=O)c1ccc(=O)n(Cc2nc(N)nc(N(C)C)n2)c1 | > 10 µM | > 10 µM | – |
| CCCCNC(=S)Nc1cc(C(F)(F)F)ccc1N1CCOCC1 | > 10 µM | > 10 µM | – |
| O=C(Nc1ccc(N2CCCC2)cn1)c1cc(Cl)ccn1 | 2.06 µM | – | IC50 (PBLUC_HILL_SLOPE 0.363, 0.720, PBLUC_R_SQUARED 0.388, 0.822, read-out: LUCIFERASE INFECTION ASSAY - IC50): 0.119 µM |
| O=C(Nc1ccc(-c2nccs2)cc1)c1cc(Br)c[nH]1 | > 10 µM | 7.5 µM | – |
| COc1ccc(-c2nc(C(=O)N3c4ccccc4CC3C)cs2)cc1OC (stereo unspecified) | > 10 µM | – | IC50 (HEPG2TOX_HILL_SLOPE 1.77, HEPG2TOX_R_SQUARED 0.837, PBLUC_HILL_SLOPE 1.16, PBLUC_R_SQUARED 0.492, read-out: LUCIFERASE INFECTION ASSAY - IC50): 1.9 µM |
| COc1cc(OC)cc(-c2cn3c(-c4ccc(CO)cc4)cnc3cn2)c1 | 8.34 µM | – | IC50 (PBLUC_HILL_SLOPE 5.1, PBLUC_R_SQUARED 0.643, read-out: LUCIFERASE INFECTION ASSAY - IC50): 5.42 µM |
| COC(=O)c1cccc2c1CCCN2C(=O)CCN1C(=O)C2CCCCC2C1=O (stereo unspecified) | > 10 µM | > 10 µM | – |
| CCOc1ccc(C2=NNC(=Nc3cccc(S(=O)(=O)N(C)C)c3)SC2)cc1 | 4.99 µM | – | IC50 (FFLUC_HILL_SLOPE 1.45, FFLUC_R_SQUARED 0.572, HEPG2TOX_HILL_SLOPE 2.21, HEPG2TOX_R_SQUARED 0.976, PBLUC_HILL_SLOPE 3.43, PBLUC_R_SQUARED 0.708, read-out: LUCIFERASE INFECTION ASSAY - IC50): 2.63 µM |
| COc1cc(C(=O)NNC(=O)c2nn(-c3ccccc3)cc2O)cc(OC)c1OC | > 10 µM | – | IC50 (HEPG2TOX_HILL_SLOPE 4.57, HEPG2TOX_R_SQUARED 0.844, PBLUC_HILL_SLOPE 7.94, PBLUC_R_SQUARED 0.6, read-out: LUCIFERASE INFECTION ASSAY - IC50): 8.48 µM |
| CC(=O)c1cccc(-c2cnc3ccc(-c4cccc(OC(F)(F)F)c4)nn23)c1 | > 10 µM | – | IC50 (HEPG2TOX_HILL_SLOPE 7.2, HEPG2TOX_R_SQUARED 0.65, PBLUC_HILL_SLOPE 0.974, PBLUC_R_SQUARED 0.617, read-out: LUCIFERASE INFECTION ASSAY - IC50): 1.38 µM |
| O=C(COc1ccc(F)cc1)N1CCC(Cc2ccccc2)CC1 | > 10.1 µM | – | IC50 (PBLUC_HILL_SLOPE 1.27, PBLUC_R_SQUARED 0.405, read-out: LUCIFERASE INFECTION ASSAY - IC50): 4.23 µM |
| Cc1onc(-c2ccc(Cl)cc2Cl)c1-c1csc(Nc2ccc(Cl)cc2)n1 | > 7.56 µM | – | IC50 (FFLUC_HILL_SLOPE 2.37, FFLUC_R_SQUARED 0.46, PBLUC_HILL_SLOPE 2.86, PBLUC_R_SQUARED 0.233, read-out: LUCIFERASE INFECTION ASSAY - IC50): 6.39 µM |

| SMILES | IC90 | IC50 [1] | other results |
| --- | --- | --- | --- |
| COc1ccc(C(C)=O)cc1COc1cccc(C(=O)NCc2ccccc2)c1 | 9.35 µM | – | IC50 (HEPG2TOX_HILL_SLOPE 15.6, HEPG2TOX_R_SQUARED 0.727, PBLUC_HILL_SLOPE 15.6, PBLUC_R_SQUARED 0.0647, read-out: LUCIFERASE INFECTION ASSAY - IC50): 8.12 µM |
| COc1ccc(-c2ccnc3n[nH]c(-c4ccncc4)c23)cc1 | > 10 µM | – | IC50 (HEPG2TOX_HILL_SLOPE 3.34, HEPG2TOX_R_SQUARED 0.878, PBLUC_HILL_SLOPE 1.93, PBLUC_R_SQUARED 0.439, read-out: LUCIFERASE INFECTION ASSAY - IC50): 3.22 µM |
| CC(C)c1ccc(CS(=O)(=O)C(C)C(=O)NC2CCCC2)cc1 (stereo unspecified) | > 10 µM | > 10 µM | – |
| CCCCc1ccc(CC(=O)NCc2ccc(Cn3cccn3)cc2)cc1 | 8.98 µM | – | IC50 (HEPG2TOX_HILL_SLOPE 7.71, 2.15, HEPG2TOX_R_SQUARED 0.735, 0.901, PBLUC_HILL_SLOPE 15.3, 3.44, PBLUC_R_SQUARED 0.0878, 0.809, read-out: LUCIFERASE INFECTION ASSAY - IC50): 7.36 µM |
| Cc1ccc(S(=O)(=O)c2nc(/C=C3\N(C)c4ccccc4C3(C)C)sc2Cl)cc1 | > 10 µM | – | IC50 (FFLUC_HILL_SLOPE 1.82, FFLUC_R_SQUARED 0.745, read-out: LUCIFERASE INFECTION ASSAY - IC50): > 10 µM |
| COc1ccc2cc(CN(C)C(=O)c3cnn(Cc4ccccc4)c3)ccc2c1 | > 10 µM | 2.85 µM | – |
| CCCCCCCOc1ccc(C(=O)CCC(=O)O)cc1 | > 11.3 µM | > 11.3 µM | – |
| O=S(=O)(Nc1cc(C(F)(F)F)cc(C(F)(F)F)c1)c1ccccc1Oc1ccc(Cl)cc1Cl | > 6.22 µM | – | IC50 (FFLUC_HILL_SLOPE 40.5, FFLUC_R_SQUARED 0.634, read-out: LUCIFERASE INFECTION ASSAY - IC50): > 6.22 µM |
| N#Cc1ccc(OCC(=O)c2ccc(OC(F)F)cc2OC(F)F)cc1 | > 10 µM | > 10 µM | – |
| O=C(Nc1ccc(Cl)cc1)c1cc(-c2ccccc2)c(C(F)(F)F)s1 | 6.06 µM | – | IC50 (HEPG2TOX_HILL_SLOPE 3.44, HEPG2TOX_R_SQUARED 0.918, PBLUC_HILL_SLOPE 6.48, PBLUC_R_SQUARED 0.174, read-out: LUCIFERASE INFECTION ASSAY - IC50): 4.32 µM |
| CC(C)(C)c1ccc(-c2ccc(OCCN3CCOCC3)nc2)cc1 | > 9.69 µM | – | IC50 (HEPG2TOX_HILL_SLOPE 2.33, HEPG2TOX_R_SQUARED 0.966, PBLUC_HILL_SLOPE 2.69, PBLUC_R_SQUARED 0.584, read-out: LUCIFERASE INFECTION ASSAY - IC50): 4.35 µM |
| CCOC(=O)c1cc(C#N)c(Sc2n[nH]c(=O)n2C(C)C)nc1C(F)(F)F | > 8.22 µM | – | IC50 (HEPG2TOX_HILL_SLOPE 15.1, HEPG2TOX_R_SQUARED 0.842, PBLUC_HILL_SLOPE 4.42, PBLUC_R_SQUARED 0.232, read-out: LUCIFERASE INFECTION ASSAY - IC50): 5.41 µM |
| C1=C(c2c[nH]c3ncccc23)CCN(c2ncnc3n[nH]cc23)C1 | > 10 µM | – | IC50 (HEPG2TOX_HILL_SLOPE 0.924, HEPG2TOX_R_SQUARED 0.995, PBLUC_HILL_SLOPE 2.5, PBLUC_R_SQUARED 0.123, read-out: LUCIFERASE INFECTION ASSAY - IC50): 7.5 µM |
| CCOc1ccc(-n2c(C)cc(/C=C(\C#N)c3ccccn3)c2C)cc1 | > 10 µM | – | IC50 (PBLUC_HILL_SLOPE 2.96, PBLUC_R_SQUARED 0.363, read-out: LUCIFERASE INFECTION ASSAY - IC50): 8.53 µM |
| CC1Cc2cc(C(=O)CSc3nnc(Cc4cccs4)n3C)ccc2N1S(C)(=O)=O (stereo unspecified) | > 10 µM | – | IC50 (HEPG2TOX_HILL_SLOPE 2.13, 1.88, HEPG2TOX_R_SQUARED 0.890, 0.990, PBLUC_HILL_SLOPE 2.16, PBLUC_R_SQUARED 0.278, read-out: LUCIFERASE INFECTION ASSAY - IC50): 3.7 µM |
| Clc1ccc2c(NCCCNc3ccccn3)ncnc2c1 | > 10 µM | > 10 µM | – |
| O=S(=O)(c1ccccc1)c1ccc(S(=O)(=O)N2CCCC2)s1 | > 9.23 µM | > 9.23 µM | – |
| CSc1nccc(-c2ccsc2)n1 | > 15.8 µM | – | IC50 (FFLUC_HILL_SLOPE 14.6, FFLUC_R_SQUARED 0.758, read-out: LUCIFERASE INFECTION ASSAY - IC50): > 15.8 µM |
| c1ccc(NCc2ccc(-c3cn4c(-c5ccncc5)cnc4cn3)cc2)cc1 | > 8.74 µM | > 8.74 µM | – |
